Legend:
MMP-3, MMP-9 and MMP-2 = test: MMP profiling assay, overall comparison of the three MMPs (Table 5 data); format: biochemical, human; settings: for MMP inhibition activity in words: substituent size on the 4-phenyl ring; for selectivity of activity among the MMP's, in words: MMP-2 and MMP-9 vs MMP-3
Description: MMP Microfluorometric Profiling Assay
IC50 Determination in Microfluorometric Assay
((Control values-Treated Values)/Control Values)×100

human colon tumor = settings: given intraperitoneally; orthotopic model in nude mice; cited from earlier work
[1] = system: human ovarian carcinoma xenografts; settings: mouse, in vivo; cited from earlier work

Row | SMILES | MMP inhibition activity in words (MMP-3, MMP-9 and MMP-2) | also measured
1 | O=C(CC(CCN1C(=O)c2ccccc2C1=O)C(=O)O)c1ccc(Br)cc1 (centres unmarked) [Compound B, 4-(4-bromophenyl)-4-oxo-2-(2-phthalimidoethyl) butyric acid] | activities are low | 
2 | CCCCCCCOc1ccc(C(=O)CC(CCN2C(=O)c3ccccc3C2=O)C(=O)O)cc1 (centres unmarked) [Example 10, 4-(4-heptyloxyphenyl)4-oxo-2-(2-phthalimidoethyl) butyric acid] |  | selectivity of activity among the MMP's, in words (MMP-3, MMP-9 and MMP-2): broad high activity
3 | CCCCCCCCCCCCCCOc1ccc(C(=O)CC(CCN2C(=O)c3ccccc3C2=O)C(=O)O)cc1 (centres unmarked) [Compound F, 4-(4-tetradecyloxyphenyl)-4-oxo-2-(2-phthalimidoethyl)butyric acid] | activity is also low | 
4 | CNC(=O)[C@H](Cc1ccccc1)NC(=O)[C@H](CC(C)C)[C@H](CSc1cccs1)C(=O)NO [batimastat] |  | human colon tumor growth and spread (human colon tumor): inhibits human colon tumor growth and spread; survival of mice bearing human ovarian carcinoma xenografts [1]: prolongs the survival of mice
5 | CCCCCCOc1ccc(C(=O)CC(CCN2C(=O)c3ccccc3C2=O)C(=O)O)cc1 (centres unmarked) [Example 11, 4-(4-hexyloxyphenyl)-4-oxo-2-(2-phthalimidoethyl) butyric acid] |  | selectivity of activity among the MMP's, in words (MMP-3, MMP-9 and MMP-2): broad high activity
6 | O=C(CC(CCN1C(=O)c2ccccc2C1=O)C(=O)O)c1ccccc1 (centres unmarked) [Compound D, 4-phenyl-4-oxo-2-(2-phthalimidoethyl)butyric acid] | activities are low | 
7 | COc1ccc(C(=O)CC(CCN2C(=O)c3ccccc3C2=O)C(=O)O)cc1 (centres unmarked) [Compound G, 4-(4-methoxyphenyl)-4-oxo-2-(2-phthalimidoethyl)butyric acid] | activities are low | 
